ChEMBL document CHEMBL6087396, “Perspective for Drug Discovery Targeting SARS Coronavirus Methyltransferases: Function, Structure and Inhibition” (J Med Chem, 2024)

Assays:
[1] = target: Replicase polyprotein 1ab; test: Inhibition of N-terminal 6His-tagged SARS-CoV nsp14 extracted from Escherichia coli
SARS-CoV-2 = test: Antiviral activity against SARS-CoV-2 infected in African green monkey Vero E6 cells assessed as inhibition of viral growth incubated for 72 hrs by plaque assay; type: functional, organism-based; conditions: Severe acute respiratory syndrome coronavirus 2, Vero C1008, 72 h
[2] = target: T1, Replicase polyprotein 1ab (Severe acute respiratory syndrome coronavirus 2, UniProt P0DTD1); test: Binding affinity to SARS-CoV-2 nsp14 assessed as inhibition constant
[3] = target: T1, Replicase polyprotein 1ab; test: Binding affinity to SARS-CoV-2 nsp14 assessed as dissociation constant

SMILES | IC50 [1] [µM] | EC50 (SARS-CoV-2) [µM] | also measured
Nc1ncnc2c1ncn2[C@@H]1O[C@H](CNS(=O)(=O)c2ccc3ccccc3c2)[C@@H](O)[C@H]1O | 93 | – | –
Nc1ncnc2c1ncn2[C@@H]1O[C@H](CN(CCO[C@@H]2[C@H](O)[C@@H](CO)O[C@H]2n2cnc3c(N)ncnc32)S(=O)(=O)c2ccc(Cl)c([N+](=O)[O-])c2)[C@@H](O)[C@H]1O | 0.6 | – | –
Nc1ncnc2c1ncn2[C@@H]1O[C@H](CSCC[C@H](N)C(=O)O)[C@@H](O)[C@H]1O [S-ADENOSYLHOMOCYSTEINE] | 16 | – | –
O=c1nc2n(CCO)c3ccccc3nc-2c(=O)n1-c1ccccc1 | – | 0.0057 | –
CC1=C(C)C(=O)C(C(C)(C)CC(=O)N(CCCCSC[C@H]2O[C@@H](n3cnc4c(N)ncnc43)[C@H](O)[C@@H]2O)Cc2cccc(-c3ccc(Cl)cc3)c2)=C(C)C1=O | 1.1 | – | –
CC(=O)c1cc(O)c2ccccc2c1O | – | 0.0085 | –
Cc1cc(=O)oc2cc(NC(=O)[C@H]3O[C@@H](n4cc(C#Cc5cncnc5)c5c(N)ncnc54)[C@H](O)[C@@H]3O)ccc12 | 31 | – | –
COc1ccc(S(=O)(=O)N(C)C[C@H]2O[C@@H](n3cc(C#Cc4cnc5ccccc5c4)c4c(N)ncnc43)[C@H](O)[C@@H]2O)cc1C#N | 0.72 | – | –
CCN(C[C@H]1O[C@@H](n2cnc3c(N)ncnc32)[C@H](O)[C@@H]1O)S(=O)(=O)c1ccc(Cl)c(C#N)c1 | – | 0.0019 | –
Nc1ncnc2c1ncn2[C@@H]1O[C@H](CSCCCCNCc2cccc(-c3ccc(Cl)cc3)c2)[C@@H](O)[C@H]1O | – | – | Ki [2]: 6 µM
O=C(O)C1=CC(=C(c2ccc(O)c(C(=O)O)c2)c2ccc(O)c(C(=O)O)c2)C=CC1=O [AURINTRICARBOXYLIC ACID] | – | 0.00047 | –
O=c1c2ccccc2[se]n1-c1ccccc1 [EBSELEN] | – | 0.034 | –
NC[C@@H](CC[C@H](N)C(=O)O)C[C@H]1O[C@@H](n2cnc3c(N)ncnc32)[C@H](O)[C@@H]1O | 1.1 | – | Kd [3]: 0.0016 µM
Nc1ncnc2c1ncn2[C@@H]1O[C@H](CSCc2cc(C(=O)O)cc(-c3ccccc3)c2)[C@@H](O)[C@H]1O | 0.58 | – | –
N#Cc1ccc(N2N=C3c4ccc(C(=O)O)cc4CC[C@@H]3[C@@H]2C2CCCC2)cc1Cl [PF-03882845] | – | 0.011 | –
Nc1ncnc2c1c(C#Cc1cnc3ccccc3c1)cn2[C@@H]1O[C@H](CSCC[C@H](N)C(=O)O)[C@@H](O)[C@H]1O | 0.003 | – | Kd [3]: 0.0252 µM
CC(C)N(CCCNC(=O)Nc1ccc(C(C)(C)C)cc1)C[C@H]1O[C@@H](n2cc(Br)c3c(N)ncnc32)[C@H](O)[C@@H]1O | – | – | Ki [2]: 8 µM
